Data as given in PubChem BioAssay AID1963868 (Molecular Pharmacology Branch, DTP, NCI, 2024).

Tested on: KRAS PDC tumor spheroids (HUVEC+MSC), viability
Assay: Anticancer human tumor 254851-301-R-J1-PDC patient-derived colon carcinoma cell line growth inhibition [KRAS2]
Details: for IC50: curve of first compound; for viability, T/C: stronger effect = lower value
Method in brief: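 KRAS-mutant tumor cells were grown as spheroids with HUVEC endothelial cells and human MSCs as stroma. Targeted agents were tested alone and with KRAS pathway inhibitors. Doses started at or near clinical Cmax, or 10 microM, descending half-log.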

[1] = second compound 0.1 µM, first compound 0.00316 µM
[2] = second compound 0.1 µM, first compound 0.01 µM
[3] = second compound 0.1 µM, first compound 0.0316 µM
[4] = second compound 0.1 µM, first compound 0.1 µM
[5] = second compound 0.1 µM, first compound 0.316 µM
[6] = second compound 0.1 µM, first compound 1 µM
[7] = second compound 0.316 µM, first compound 0.00316 µM
[8] = second compound 0.316 µM, first compound 0.01 µM
[9] = second compound 0.316 µM, first compound 0.0316 µM
[10] = second compound 0.316 µM, first compound 0.1 µM
[11] = second compound 0.316 µM, first compound 0.316 µM
[12] = second compound 0.316 µM, first compound 1 µM
[13] = second compound 1 µM, first compound 0.00316 µM
[14] = second compound 1 µM, first compound 0.01 µM
[15] = second compound 1 µM, first compound 0.0316 µM
[16] = second compound 1 µM, first compound 0.1 µM
[17] = second compound 1 µM, first compound 0.316 µM
[18] = second compound 1 µM, first compound 1 µM
[19] = second compound 3.16 µM, first compound 0.00316 µM
[20] = second compound 3.16 µM, first compound 0.01 µM
[21] = second compound 3.16 µM, first compound 0.0316 µM
[22] = second compound 3.16 µM, first compound 0.1 µM
[23] = second compound 3.16 µM, first compound 0.316 µM
[24] = second compound 3.16 µM, first compound 1 µM
[25] = second compound 10 µM, first compound 0.00316 µM
[26] = second compound 10 µM, first compound 0.01 µM
[27] = second compound 10 µM, first compound 0.0316 µM
[28] = second compound 10 µM, first compound 0.1 µM
[29] = second compound 10 µM, first compound 0.316 µM
[30] = second compound 10 µM, first compound 1 µM
[31] = second compound 0.1 µM, first compound 3.16 µM
[32] = second compound 0.316 µM, first compound 3.16 µM
[33] = second compound 1 µM, first compound 3.16 µM
[34] = second compound 3.16 µM, first compound 3.16 µM
[35] = second compound 10 µM, first compound 3.16 µM
[36] = second compound 0.1 µM, first compound 0.000316 µM
[37] = second compound 0.1 µM, first compound 0.001 µM
[38] = second compound 0.316 µM, first compound 0.000316 µM
[39] = second compound 0.316 µM, first compound 0.001 µM
[40] = second compound 1 µM, first compound 0.000316 µM
[41] = second compound 1 µM, first compound 0.001 µM
[42] = second compound 3.16 µM, first compound 0.000316 µM
[43] = second compound 3.16 µM, first compound 0.001 µM
[44] = second compound 10 µM, first compound 0.000316 µM
[45] = second compound 10 µM, first compound 0.001 µM
[46] = second compound 0.1 µM, first compound 10 µM
[47] = second compound 0.316 µM, first compound 10 µM
[48] = second compound 1 µM, first compound 10 µM
[49] = second compound 3.16 µM, first compound 10 µM
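Also: spheroids exposed to compounds for seven days before readout.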
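For viability, T/C in this document: 100% = DMSO vehicle control luminescence of the spheroids.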

SMILES | IC50 (second compound 0.1 µM) [nM] | IC50 (second compound 0.316 µM) [nM] | IC50 (second compound 1 µM) [nM] | IC50 (second compound 3.16 µM) [nM] | IC50 (second compound 10 µM) [nM] | viability, T/C [2] [%] | viability, T/C [3] [%] | viability, T/C [4] [%] | viability, T/C [5] [%] | viability, T/C [6] [%] | viability, T/C [8] [%] | viability, T/C [9] [%] | viability, T/C [10] [%] | viability, T/C [11] [%] | viability, T/C [15] [%] | viability, T/C [16] [%] | viability, T/C [21] [%] | viability, T/C [22] [%] | viability, T/C [27] [%] | viability, T/C [28] [%] | other results
CCN1CCN(Cc2ccc(Nc3ncc(F)c(-c4cc(F)c5nc(C)n(C(C)C)c5c4)n3)nc2)CC1 + CNCc1ccccc1-c1csc(C(C)Nc2nc(C)nc3cc(OC)c(OC)cc23)c1 | 661 | 514 | 489 | < 3.16 | < 3.16 | 94.5 | 76.8 | 69.1 | 70.9 | 40.4 | 86.2 | 84 | 63.1 | 59.9 | 81 | 62.6 | 26.4 | 21.7 | 0.09 | 0.06 | viability, T/C [1]: 91.4%; viability, T/C [7]: 110%; viability, T/C [12]: 41%; viability, T/C [13]: 83.4%; viability, T/C [14]: 83.6%; viability, T/C [17]: 63.1%; viability, T/C [18]: 35.8%; viability, T/C [19]: 42.2%; viability, T/C [20]: 35.1%; viability, T/C [23]: 17.9%; viability, T/C [24]: 14.7%; viability, T/C [25]: 0.07%; viability, T/C [26]: 0.09%; viability, T/C [29]: 0.07%; viability, T/C [30]: 0.11%
CC1COCCN1c1cc(-c2ccnn2C)c2ccnc(-c3ccn[nH]3)c2n1 (stereo not given) + COc1cc2nc(C)nc(NC(C)c3cc(N)cc(C(F)(F)F)c3)c2cc1OC1CCOC1 | 37.4 | 425 | 350 | 114 | 120 | 70.2 | 46.4 | 32.6 | 42.3 | 36.8 | 99.8 | 112 | 81 | 58.5 | 104 | 77 | 64.3 | 56.3 | 92 | 51.3 | viability, T/C [31]: 14.2%; viability, T/C [12]: 31.8%; viability, T/C [32]: 25%; viability, T/C [14]: 103%; viability, T/C [17]: 50.5%; viability, T/C [18]: 38%; viability, T/C [33]: 24%; viability, T/C [20]: 80%; viability, T/C [23]: 29.3%; viability, T/C [24]: 17.9%; viability, T/C [34]: 25.7%; viability, T/C [26]: 99.8%; viability, T/C [29]: 33.5%; viability, T/C [30]: 21.8%; viability, T/C [35]: 20.9%
Cn1ncnc1[C@H]1c2n[nH]c(=O)c3cc(F)cc(c23)N[C@@H]1c1ccc(F)cc1 + COc1cc2nc(C)nc(NC(C)c3cc(N)cc(C(F)(F)F)c3)c2cc1OC1CCOC1 | > 100 | > 100 | > 100 | > 100 | > 100 | 100 | 99.6 | 101 | – | – | 80.9 | 84.8 | 89.5 | – | 85.9 | 81.3 | 87.2 | 80.9 | 69.2 | 74.7 | viability, T/C [36]: 111%; viability, T/C [37]: 95.6%; viability, T/C [1]: 104%; viability, T/C [38]: 95.9%; viability, T/C [39]: 100%; viability, T/C [7]: 93.5%; viability, T/C [40]: 86.9%; viability, T/C [41]: 81.6%; viability, T/C [13]: 83.1%; viability, T/C [14]: 86.4%; viability, T/C [42]: 86.5%; viability, T/C [43]: 83.8%; viability, T/C [19]: 95.9%; viability, T/C [20]: 86%; viability, T/C [44]: 77.9%; viability, T/C [45]: 83%; viability, T/C [25]: 80.8%; viability, T/C [26]: 78.1%
CN(C)C/C=C/C(=O)Nc1cc2c(Nc3ccc(F)c(Cl)c3)ncnc2cc1O[C@H]1CCOC1 + C=CC(=O)N1CCN(c2nc(=O)n(-c3c(C)ccnc3C(C)C)c3nc(-c4c(O)cccc4F)c(F)cc23)C(C)C1 | > 100 | > 100 | > 100 | > 100 | > 100 | 93.8 | 97.2 | 93 | – | – | 89.6 | 93.4 | 75.2 | – | 83.6 | 73.5 | 100 | 82.5 | 95.6 | 74.4 | viability, T/C [36]: 110%; viability, T/C [37]: 103%; viability, T/C [1]: 99.5%; viability, T/C [38]: 104%; viability, T/C [39]: 102%; viability, T/C [7]: 96.5%; viability, T/C [40]: 99.5%; viability, T/C [41]: 108%; viability, T/C [13]: 86.1%; viability, T/C [14]: 87.2%; viability, T/C [42]: 101%; viability, T/C [43]: 98.7%; viability, T/C [19]: 87.1%; viability, T/C [20]: 93.8%; viability, T/C [44]: 109%; viability, T/C [45]: 99.3%; viability, T/C [25]: 91.9%; viability, T/C [26]: 94.6%
O=C(c1cc(Cc2n[nH]c(=O)c3ccccc23)ccc1F)N1CCN(C(=O)C2CC2)CC1 + C=CC(=O)N1CCN(c2nc(OCC3CCCN3C)nc3c2CCN(c2cccc4cccc(C)c24)C3)CC1CC#N | > 10000 | > 10000 | > 10000 | > 10000 | – | – | 105 | 106 | 97.8 | 104 | – | 101 | 99.6 | 102 | 96.8 | 98.7 | 67.8 | 55.4 | – | – | IC50 (second compound 0.0316 µM): > 10000 nM; viability, T/C (second compound 0.0316 µM, first compound 0.0316 µM): 108%; viability, T/C (second compound 0.0316 µM, first compound 0.1 µM): 111%; viability, T/C (second compound 0.0316 µM, first compound 0.316 µM): 96%; viability, T/C (second compound 0.0316 µM, first compound 1 µM): 96.4%; viability, T/C (second compound 0.0316 µM, first compound 3.16 µM): 81.5%; viability, T/C (second compound 0.0316 µM, first compound 10 µM): 84.9%; viability, T/C [31]: 93.5%; viability, T/C [46]: 92.6%; viability, T/C [12]: 99.7%; viability, T/C [32]: 98.4%; viability, T/C [47]: 92.7%; viability, T/C [17]: 101%; viability, T/C [18]: 92%; viability, T/C [33]: 99.8%; viability, T/C [48]: 92.1%; viability, T/C [23]: 72.5%; viability, T/C [24]: 60.1%; viability, T/C [34]: 69.4%; viability, T/C [49]: 69.4%
COC(=O)c1ccc2c(C(=Nc3ccc(N(C)C(=O)CN4CCN(C)CC4)cc3)c3ccccc3)c(O)[nH]c2c1 + COc1cc2nc(C)nc(NC(C)c3cc(N)cc(C(F)(F)F)c3)c2cc1OC1CCOC1 | > 10000 | > 10000 | > 10000 | 3850 | 1240 | – | 90.9 | 102 | 89 | 85.3 | – | 88 | 95 | 92.5 | 86.9 | 90.5 | 93.2 | 85.9 | 82.7 | 87 | viability, T/C [31]: 98.7%; viability, T/C [46]: 87%; viability, T/C [12]: 86.1%; viability, T/C [32]: 90.2%; viability, T/C [47]: 90.4%; viability, T/C [17]: 83.3%; viability, T/C [18]: 77.7%; viability, T/C [33]: 80.1%; viability, T/C [48]: 73%; viability, T/C [23]: 88.9%; viability, T/C [24]: 80.2%; viability, T/C [34]: 59.2%; viability, T/C [49]: 6.26%; viability, T/C [29]: 77.8%; viability, T/C [30]: 61.3%; viability, T/C [35]: 1.22%; viability, T/C (second compound 10 µM, first compound 10 µM): 0.29%
